Source: patent publication US20160316790A1, “BETA-HINOKITIOL DERIVATIVES AND APPLICATIONS THEREOF IN PREPARATION OF ANIMAL ANTIBACTERIAL AGENTS AND ANTIBACTERIAL GROWTH PROMOTERS USED IN FEED” (GUANGZHOU INSIGHTER BIOTECHNOLOGY CO., LTD., priority 2013, published 2016)
Converted amounts (≈) assume the structure as drawn. “And” between values parts separate entries of the source, which are not always exact repeats. Equal entries are not always repeated. Where two headings read alike, the source gives them in different places.

Assays:
[1] = system: clostridium perfringens; experiment: microbe, parasite or virus in culture; type: cell-based
[2] = system: escherichia coli; experiment: Minimum inhibitory concentration in vitro, doubling dilutions; type: cell-based
[3] = system: vibrio; experiment: as above; type: cell-based
[4] = system: haemophilus parasuis; experiment: as above; type: cell-based; conditions: Glaesserella parasuis
[5] = system: salmonellas; experiment: as above; type: cell-based
[6] = system: riemerella anatipestifer; experiment: as above; type: cell-based
[7] = system: streptococcus; experiment: as above; type: cell-based
[8] = Application effect test of β-hinokitiol derivatives in broiler feeds; type: in vivo, fast-grown type yellow feather broilers; conditions: 14 days
Excerpt: 598 fast-grown type yellow feather broilers (female) aged 30-days were divided into five groups according to table 5. […] During the test, the broilers ate food and drank water freely. The test lasted for 14 days. […] [table]

[9] = system: major animal pathogenic bacteria; experiment: In vitro antibacterial activity (MICs), overall statement; type: cell-based; conditions: Tables 1 to 4
[10] = Effect of β-hinokitiol derivatives on diarrhea of weaned pigs; type: in vivo; conditions: weaned pigs, 10 days
Excerpt: 80 25-day-old weaned pigs were randomly divided into eight groups according to table 7, 10 pigs in each group. […] During the testing, the pigs ate food and drank water freely with temperature preservation. The test lasted for 10 days.

[11] = system: staphylococcus aureus; experiment: Minimum inhibitory concentration in vitro, doubling dilutions; type: cell-based
[12] = read-out: Minimum inhibitory concentration (MIC), Clostridium JM1210B
[13] = read-out: Minimum inhibitory concentration (MIC), Clostridium JM1212A
[14] = read-out: Minimum inhibitory concentration (MIC), Eserichia coli HZ1308-1
[15] = read-out: Minimum inhibitory concentration (MIC), Eserichia coli SS1107A
[16] = read-out: Minimum inhibitory concentration (MIC), Vibrio VP3
[17] = read-out: Minimum inhibitory concentration (MIC), Vibrio VP5
[18] = strain 2-3A, read-out: Minimum inhibitory concentration (MIC), Haemophilus parasuis 2-3A
[19] = strain FS1303B, read-out: Minimum inhibitory concentration (MIC), Salmonellas FS1303B
[20] = strain GD1303-3, read-out: Minimum inhibitory concentration (MIC), Salmonellas GD1303-3
[21] = read-out: Minimum inhibitory concentration (MIC), Riemerella anatipestifer SCAU03
[22] = strain WS, read-out: Minimum inhibitory concentration (MIC), Riemerella anatipestifer WS
[23] = strain KP1307-1, read-out: Minimum inhibitory concentration (MIC), Streptococcus KP1307-1
[24] = strain TS1205-2, read-out: Minimum inhibitory concentration (MIC), Streptococcus TS1205-2
[25] = broilers, 40 ppm mixed with feed
[26] = read-out: Minimum inhibitory concentration (MIC), Haemophilus parasuis S5A

Molecule | MIC [1, 12] [µg/mL] | MIC [1, 13] [µg/mL] | MIC [2, 14] [µg/mL] | MIC [2, 15] [µg/mL] | MIC [3, 16] [µg/mL] | MIC [3, 17] [µg/mL] | MIC [4, 18] [µg/mL] | MIC [5, 19] [µg/mL] | MIC [5, 20] [µg/mL] | MIC [6, 21] [µg/mL] | MIC [6, 22] [µg/mL] | MIC [7, 23] [µg/mL] | MIC [7, 24] [µg/mL] | further results
CCC(C)c1cccc(=O)c(O)c1 (centres unmarked) [IST_009_008, 4-(sec-butyl)-2-hydroxycyclohepta-2,4,6-trienone] | 12.5 (≈ 70.1 µM) | 12.5 (≈ 70.1 µM) | 25 (≈ 140 µM) | 25 (≈ 140 µM) | 50 (≈ 281 µM) | 25 (≈ 140 µM) | 0.39 (≈ 2.19 µM) | 25 (≈ 140 µM) | 25 (≈ 140 µM) | 12.5 (≈ 70.1 µM) | 6.25 (≈ 35.1 µM) | 50 (≈ 281 µM) | 50 (≈ 281 µM) | –
CCCCCc1cccc(=O)c(O)c1 [IST_009_003, 2-hydroxy-4-pentylcyclohepta-2,4,6-trienone] | 6.25 (≈ 32.5 µM) | 6.25 (≈ 32.5 µM) | 6.25 (≈ 32.5 µM) | 12.5 (≈ 65 µM) | 50 (≈ 260 µM) | 25 (≈ 130 µM) | 0.2 (≈ 1.04 µM) | 6.25 (≈ 32.5 µM) | 12.5 (≈ 65 µM) | 12.5 (≈ 65 µM) | 3.13 (≈ 16.3 µM) | – | – | Average daily weight gain [8, 25]: 36.21 g/d * bird and 34.19 g/d * bird and 37.14 g/d * bird; Average weight gain [8, 25]: 502.05 g and 449.90 g and 534.50 g; Total consumption [8, 25]: 58.05 kg and 57.71 kg and 58.17 kg; feed conversion efficiency [8, 25]: 2.862 and 2.952 and 2.868; weight gain and feed conversion efficiency of the experimental broilers (in words) ([8]; in feed): could enhance the weight gain and the feed conversion efficiency; antibacterial activities compared with the lead compound IST_001_002 (in words) [9]: better than those of the lead compound IST_001_002; MIC ([7]; read-out: Minimum inhibitory concentration (MIC), Streptococcus KP1307-1): 12.5 µg/mL (≈ 65 µM); MIC ([7]; read-out: Minimum inhibitory concentration (MIC), Streptococcus TS1205-2): 12.5 µg/mL (≈ 65 µM)
Colistin sulfate [reference compound] | – | – | – | – | – | – | – | – | – | – | – | – | – | Average daily diarrhea rate ([10]; 60 ppm in diet): 30% and 33%
CC(C)c1cccc(=O)c(O)c1 [IST_001_002, 2-hydroxy-4-isopropyl-1-cycloheptatrienone, reference compound] | 6.25 (≈ 38.1 µM) | 12.5 (≈ 76.1 µM) | 25 (≈ 152 µM) | 25 (≈ 152 µM) | 25 (≈ 152 µM) | 25 (≈ 152 µM) | 0.78 (≈ 4.75 µM) | 25 (≈ 152 µM) | 25 (≈ 152 µM) | – | – | 50 (≈ 304 µM) | 50 (≈ 304 µM) | MIC ([11]; strain PNB14, read-out: Minimum inhibitory concentration (MIC), Staphylococcus aureus PNB14): 25 µg/mL (≈ 152 µM); MIC ([11]; strain SA10, read-out: Minimum inhibitory concentration (MIC), Staphylococcus aureus SA10): 25 µg/mL (≈ 152 µM); Average daily diarrhea rate ([10]; 30 ppm in diet): 35% and 32%; MIC ([6]; read-out: Minimum inhibitory concentration (MIC), Riemerella anatipestifer WS): 6.25 µg/mL (≈ 38.1 µM); MIC ([6]; strain SCAU03, read-out: Minimum inhibitory concentration (MIC), Riemerella anatipestifer SCAU03): 25 µg/mL (≈ 152 µM)
O=c1cccc(Cc2ccc(F)cc2)cc1O [IST_009_028, 4-(4-fluorobenzyl)-2-hydroxycyclohepta-2,4,6-trienone] | – | – | – | – | 100 (≈ 434 µM) | 100 (≈ 434 µM) | – | – | – | – | – | 25 (≈ 109 µM) | 25 (≈ 109 µM) | –
O=c1cccc(CCCF)cc1O [IST_009_031, 4-(3-fluoropropyl)-2-hydroxycyclohepta-2,4,6-trienone] | 6.25 (≈ 34.3 µM) | 6.25 (≈ 34.3 µM) | 25 (≈ 137 µM) | 100 (≈ 549 µM) | – | – | – | 50 (≈ 274 µM) | 50 (≈ 274 µM) | – | – | – | – | MIC ([4]; read-out: Minimum inhibitory concentration (MIC), Haemophilus parasuis 2-3A): 6.25 µg/mL (≈ 34.3 µM); MIC [4, 26]: 3.13 µg/mL (≈ 17.2 µM)
CCCCCCCCc1cccc(=O)c(O)c1 [IST_009_030, 2-hydroxy-4-octylcyclohepta-2,4,6-trienone] | 25 (≈ 107 µM) | 12.5 (≈ 53.3 µM) | 25 (≈ 107 µM) | > 100 | > 100 | > 100 | 6.25 (≈ 26.7 µM) | 25 (≈ 107 µM) | > 100 | 12.5 (≈ 53.3 µM) | 3.13 (≈ 13.4 µM) | 25 (≈ 107 µM) | 25 (≈ 107 µM) | MIC ([11]; read-out: Minimum inhibitory concentration (MIC), Staphylococcus aureus PNB14): 12.5 µg/mL (≈ 53.3 µM); MIC ([11]; read-out: Minimum inhibitory concentration (MIC), Staphylococcus aureus SA10): 12.5 µg/mL (≈ 53.3 µM); MIC [4, 26]: 0.39 µg/mL (≈ 1.66 µM)
